Molecular target: T1, hDAGL-α (Homo sapiens, UniProt Q9Y4D2)
T1 sequence (Q9Y4D2 1-1042): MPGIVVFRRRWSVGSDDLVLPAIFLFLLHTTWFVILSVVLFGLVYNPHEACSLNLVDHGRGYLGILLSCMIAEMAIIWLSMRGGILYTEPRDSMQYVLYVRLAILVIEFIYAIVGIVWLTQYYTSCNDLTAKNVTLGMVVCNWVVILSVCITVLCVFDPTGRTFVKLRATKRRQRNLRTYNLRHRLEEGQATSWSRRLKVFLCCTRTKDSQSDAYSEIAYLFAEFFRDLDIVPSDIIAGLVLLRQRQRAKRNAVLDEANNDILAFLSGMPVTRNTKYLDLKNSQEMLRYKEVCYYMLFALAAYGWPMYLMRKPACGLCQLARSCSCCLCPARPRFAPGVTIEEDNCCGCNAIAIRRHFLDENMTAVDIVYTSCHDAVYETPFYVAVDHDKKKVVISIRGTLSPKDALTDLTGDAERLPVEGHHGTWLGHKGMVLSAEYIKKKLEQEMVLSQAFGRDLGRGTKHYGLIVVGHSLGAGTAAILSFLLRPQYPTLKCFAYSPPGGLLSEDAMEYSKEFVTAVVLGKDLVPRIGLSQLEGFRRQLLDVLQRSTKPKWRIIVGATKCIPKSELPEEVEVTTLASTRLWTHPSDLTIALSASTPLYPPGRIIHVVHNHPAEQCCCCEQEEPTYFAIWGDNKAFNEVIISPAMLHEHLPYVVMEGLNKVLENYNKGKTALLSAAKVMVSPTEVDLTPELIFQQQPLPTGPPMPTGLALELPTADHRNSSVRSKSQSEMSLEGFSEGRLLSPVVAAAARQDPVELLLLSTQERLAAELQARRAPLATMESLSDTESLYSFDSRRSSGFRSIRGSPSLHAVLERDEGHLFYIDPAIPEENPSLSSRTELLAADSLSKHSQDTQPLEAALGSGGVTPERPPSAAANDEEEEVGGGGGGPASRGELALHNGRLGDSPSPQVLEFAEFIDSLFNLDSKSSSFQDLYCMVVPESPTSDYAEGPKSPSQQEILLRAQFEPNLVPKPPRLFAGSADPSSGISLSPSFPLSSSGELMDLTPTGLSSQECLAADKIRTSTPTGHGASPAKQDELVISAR
Assay: DAGL-α natural substrate assay (SAG hydrolysis, glycerol based real-time fluorescence assay)
Assay type: biochemical
Set-up: expressed in transfected cells; host or cells: HEK293T (transient), membrane preparation
Conditions: for pIC50: n=4
From the text: To confirm that compound 25 was also able to block conversion of the natural substrate 1-stearoyl-2-arachidonoyl-sn-glycerol of DAGL-α to the endocannabinoid 2-AG, the inventors employed a real-time, fluorescence-based assay. The DAGL-α natural substrate assay is based on the production of 2-AG from 1-stearoyl-2-arachidonoyl-sn-glycerol (SAG) hydrolysis by DAGL-α-overexpressing membrane preparations from transiently transfected HEK293T cells. The 2-AG production is coupled to the oxidation of commercially available Amplifu™Red via a multi-enzyme cascade, resulting in a fluorescent signal from the dye resorufin.
Standard assays were performed in HEMNB buffer (50 mM HEPES pH 7.4, 1 mM EDTA, 5 mM MgCl2, 100 mM NaCl, 0.5% (w/v) BSA) in black, flat clear-bottom 96-wells plates (Greiner). Final protein concentration of membrane preparations from DAGL-α-overexpressing HEK293T cells was 50 µg/mL (10 µg per well). Inhibitors were added from 40x concentrated DMSO stocks. A substrate solution of 1-stearoyl-2-arachidonoyl-sn-glycerol was prepared just prior to use. The SAG stock solution (10 mg/mL in methyl acetate) was dried under argon and subsequently dissolved in 50 mM HEPES buffer (pH 7.0) containing 0.75% (w/v) Triton X-100. The substrate solution was mixed to form an emulsion and stored on ice until use.
DAGL-α-overexpressing membranes were incubated with inhibitor for 20 min. Subsequently, assay mix containing glycerol kinase (GK), glycerol-3-phosphate oxidase (GPO), horseradish peroxidase (HRP), adenosine triphosphate (ATP), monoacylglycerol lipase (MAGL), Amplifu™Red and 1-stearoyl-2-arachidonoyl-sn-glycerol (SAG) was added and fluorescence was measured in 5 min intervals for 60 min on a GENios microplate reader (Tecan, Giessen, The Netherlands).
Standard assay concentrations: 0.2 U/mL GK, GPO and HRP, 0.125 mM ATP, 5 µg/mL MAGL-overexpressing membranes, 10 µM Amplifu™Red, 100 or 150 µM SAG, 5% DMSO, 0.0075% (w/v) Triton X-100 in a total volume of 200 µL.

[1] = natural substrate 1-stearoyl-2-arachidonoyl-sn-glycerol

| pIC50 [1] | pIC50 (glycerol based natural substrate assay, figure legend prints nM, unit of the source corrected) | fold increase compared to compound 1 (natural substrate assay) | SMILES |
| --- | --- | --- | --- |
| 6.3 ± 0.1 | – | – | O=C(CCCCCc1ccccc1)c1nc2ncccc2o1 [Compound 1, 1-(Oxazolo[4,5-b]pyridin-2-yl)-6-phenylhexan-1-one, reference compound] |
| 7.9 ± 0.08 | 7.9 ± 0.08 | 40 fold | Cc1ccc(-c2cnc3nc(C(=O)CCCCCc4ccccc4)oc3c2)cc1 [Compound 25, 1-(6-(p-Tolyl)oxazolo[4,5-b]pyridin-2-yl)-6-phenylhexan-1-one] |

From patent EP3095787A1, “[…] ACTIVE COMPOUNDS AS DAG-LIPASE INHIBITORS” (Universiteit Leiden, priority 2015, dated 2016)
